Laboratory results taken from patent US12616713B2, “Methods for enhancing vascular density” (priority 2016, dated 2026).

What was measured:
C57BL/6J mice [1] = experiment: Optoacoustic imaging of hindlimb soluble oxygen (sO2); format: in vivo, mouse; conditions: 20-month old mice, photoacoustic tomography
Protocol: Optoacoustic imaging. An MSOT inVision 256-TF small animal imaging system (iThera Medical GmbH, Munich, Germany) was used (Morscher et al., 2014, Photoacoustics 2, 103-110). Mice were anesthetized with isoflurane (1.5-2%, 500 ml O2/min), and body portion below chest area was shaved using depilatory cream. The animals were then placed horizontally in the imaging chamber and three-dimensional scanning of the lower portion was performed as per manufacture's protocol. Briefly, a tunable optical parametric oscillator (OPO) pumped by an Nd:YAG laser provided excitation pulses with a duration of 9 ns at wavelengths from 680 nm to 980 nm at a repetition rate of 10 Hz with a wavelength tuning speed of 10 ms and a peak pulse energy of 100 mJ at 730 nm. Ten arms of a fiber bundle provided even illumination of a ring-shaped light strip of approx. 8 mm width. For ultrasound detection, 256 toroidally focused ultrasound transducers with a center frequency of 5 MHz (60% bandwidth), organized in a concave array of 270° angular coverage and a radius of curvature of 4 cm, were used.

[2] = system: MLECs from WT and ESKO mice; experiment: Spheroid sprouting assay, MLECs; format: cell-based, mouse; conditions: WT versus ESKO MLECs, C2C12 CM, NMN 0.5 mM
Protocol: ECs spheroids were generated as described previously (Korff and Augustin, 1998, J Cell Biol 143, 1341-1352). ECs (1000 cells per spheroid) were suspended in EGM-2 medium containing 20% methocel (viscosity: 4000 cps, Sigma) and seeded in non-adherent round-bottom 96-well plates (Sigma). Under these conditions all suspended cells contributed to the formation of a single spheroid. The spheroids were harvested after 24 h embedded into collagen gels. Sprouting was initiated by adding C2C12 CM or EBM-2 medium containing VEGF (50 ng/mL). NMN (0.5 mM), NaHS (0.1 mM), DAPT (20 μM, Cayman Chemical) or SU5416 (10 μM, Sigma) were added to the media wherever mentioned. Angiogenic activity was quantified by measuring the sprout length that had grown out of each spheroid analyzing 8-10 spheroids per group.

[3] = system: human aortic endothelial cells (HAECs); experiment: Tube formation assay, HAECs; format: cell-based
Protocol: Formation of tube networks was assessed as described before (Borradaile and Pickering, 2009, Aging Cell 8, 100-112). ECs were seeded at 10,000 cells per well in a 24-well plate (Corning) coated with 150 μL Cultrex reduced growth factor basement membrane extract (Trevigen). The cells were supplemented with C2C12 CM or EBM-2 medium containing VEGF (30 ng/mL) or FGF (30 ng/mL). […] Following an 18 h-incubation, resulting tube networks were analyzed by light microscopy (Nikon Eclipse TiE). For tube formation assays with H2O2 treatment, cells were incubated with 150 μM H2O2 for 1 h before seeding and imaged after 10 h-incubation. The number of branch points and total length of tubule networks were quantified by ImageJ software.

C57BL/6J mice [4] = experiment: TUNEL and CD31 co-staining of quadriceps capillaries; format: in vivo, mouse; conditions: aged quadriceps tissue, four weeks treatment; untreated 42%
Protocol: Freshly isolated whole quadriceps and gastrocnemius muscle samples were mounted in OCT compound (Tissue-Tek), placed in an isopentane bath and slowly cooled in liquid nitrogen. Transverse sections at 20 μm-thickness were sectioned on a cryostat (Leica). The sections were fixed in pre-cooled acetone (−20° C.) for 10 min and washed with PBS. Slides were then blocked in normal goat serum and 5% Blocking Reagent (PerkinElmer) in PBST (PBS with 0.1% Triton-X) for 1 h at room temperature, and then incubated with anti-CD31 (ab56299, Abcam) and anti-Laminin (L9393, Sigma), GFP (ab6556, Abcam) or SIRT1 (HPA006295, Sigma) antibodies diluted in blocking buffer overnight at 4° C. Slides were washed with PBST and then incubated with anti-rat Alexa Fluor 488-conjugated (Life Technologies) and anti-rabbit Alexa Fluor 594-conjugated (Life Technologies) antibodies diluted to 1:500 in blocking buffer for 2 h at room temperature. Slides were washed again with PBST and mounted with Fluoroshield with DAPI mounting medium (Sigma). Images were acquired using a confocal fluorescence microscope (Nikon A1). Quantification of capillaries and capillary density were performed using ImageJ software. TUNEL staining was performed in muscle sections using in situ BrdU-Red DNA fragmentation (TUNEL) assay kit (Abcam) as per manufacturer's protocol.

HUVECs = experiment: Wound scratch assay, HUVECs; format: cell-based, human; conditions: Scr or SIRT1 siRNA HUVECs, H2O2 150 μM 1 h, NaHS 100 μM and/or NMN 500 μM, 6 h
Protocol: ECs were cultured until forming a confluent monolayer and a scratch was made using a 200 μL pipette tip. Then the cells were allowed to migrate+/−NaHS (0.1 mM) and +/−NMN (0.5 mM) in EGM-2 medium for 6 hrs. Images were taken at the same location using a brightfield inverted microscope (Olympus 2467) every 2 h. The area of gap closure was calculated using ImageJ software. In some experiments, HUVECs were transduced with Scr or SIRT1 siRNA and cultured until forming a confluent monolayer. The cells were exposed to H2O2 (150 μM) for 1 h and a scratch was made using a 200 μL pipette tip. Then the cells were allowed to migrate with PBS (vehicle), NaHS (100 μM) and/or NMN (500 μM) in EGM-2 medium for 6 h. Images were taken at the same location using a brightfield inverted microscope (Olympus 2467) every 2 h. The area of gap closure was calculated using ImageJ software.

C57BL/6J mice [5] = experiment: Treadmill endurance testing; format: in vivo, mouse
Protocol: Endurance testing. Treadmill tests were carried out on a 1050-RM Exer 3/6 Open Treadmill (Columbus Instruments, OH). Mice were acclimatized to the treadmill system for 3 days prior to endurance testing by running at 10-15 m/min for 20 min. In low intensity endurance testing, the speed started at 5 m/min for 5 min (warm up), and then the speed was increased by 1 every minute until 21 m/min and kept constant. In high intensity endurance testing, the speed started at 13 m/min for 5 min (warm up) at 5° inclination, and then the speed was increased by 1 every minute until 20 m/min and kept constant for 20 min. Every 20 min, the speed was increased by 5 m/min and held constant for 20 min. Mice were considered exhausted when they sat on the shocker plate for more than 10 sec without attempting to reinitiate running.

[6] = NMN and VEGF (30 ng/mL) cotreatment of HAECs, compared to VEGF alone
[7] = 20-month old mice, low intensity treadmill test

## NC(=O)c1ccc[n+]([C@@H]2O[C@H](COP(=O)([O-])O)[C@@H](O)[C@H]2O)c1 [NMN, nicotinamide mononucleotide]
C57BL/6J mice [1]
  soluble oxygen (sO2) levels in resting muscle, greater than vehicle-treated controls: 15%
[2]
  ability of NMN to stimulate spheroid sprouting, dependence on SIRT1: SIRT1-dependent
[3]; NMN 10 μM, 100 μM or 500 μM versus PBS
  number of branch points and total length of tubes: steadily increased
[3]; [6]
  increase in number of branch points: 32%
  increase in tubule length: 15%
[3]; NMN itself, without VEGF
  increase in number of branch points: 25%
[3]; NT or SIRT1 siRNA, VEGF 30 ng/mL, NMN 0.5 mM
  ability of NMN to stimulate tube formation, dependence on SIRT1: SIRT1-dependent
[3]; Scr or SIRT1 siRNA, NMN 500 μM
  effects of NMN on VEGF-mediated tube formation after knockdown of SIRT1: completely blocked by knockdown of SIRT1
[3]; T3 or T6 siRNA, VEGF 30 ng/mL, +/- NMN
  VEGF-mediated tube formation after knockdown of SIRT3 and SIRT6: partially rescued
[3]; time-lapse videos, extended 18 h period
  disintegration of tubes: prevented the disintegration of tubes
C57BL/6J mice [4]
  number of capillaries with apoptotic cells: 17%
HUVECs
  cell migration (percentage of closed gaps): had no effect
C57BL/6J mice [5]; 20-month old mice, high-endurance exercise regimen
  distance run further than untreated mice: 80%
C57BL/6J mice [5]; [7]
  distance run until exhaustion: 686 meters
  low-intensity endurance, improvement over the untreated mice: 56%
C57BL/6J mice [5]; 31-month old mice, low intensity treadmill test
  time and distance to exhaustion (endurance): significant trend towards increased time and distance to exhaustion
C57BL/6J mice [5]; mice (summary statement)
  exercise capacity, including endurance: increased exercise capacity
